According to patent US20090214670A1, “Rhcc peptide and uses thereof” (Optovent AB, priority 2005, published 2009):

Tests used:
[1] = system: IL-6-dependent BAF/3 cell line; assay: biological activity on the IL-6-dependent BAF/3 cell line; format: cell-based
Text: The calculated molecular mass of RHCC-IL-6 monomer is 28.3 kDa. […] The corresponding value for the tetramer is […].

[2] = system: RHCC; assay: filtering experiment: excess metal complex removed via size exclusion filters, absorption spectra; format: binding, Staphylothermus marinus; settings: mixed with excess metal complex, stirred at least 1 hour, solvent replaced via size exclusion filters; FIG. 2 and 3
Procedure: After leaving the mixed solution stirred for at least 1 hour, the solvent containing RHCC, the metal complex and the buffer or any other supporting salt, the solvent together with any excess metal complex and salt is replaced via size exclusion filters by a solvent NOT containing any metal complex. The result of such an experiment is plotted in FIG. 2. […] In combination with the x-ray structures a location of HgI4^2− inside the cavities in solution can be concluded. […] According to the crystal structure, incorporation into the cavities of RHCC can be concluded for cisplatin.

[3] = system: RHCC peptide; assay: NMR and UV-Vis absorption experiments on incorporation of metal ions in solution; format: binding, Staphylothermus marinus
Text: For the addition of electrons according to reaction (4), electrochemical or photoelectrochemical reduction (with e.g. [Ru(bpy)3]^2+) may be used, although the simple addition of a chemical reducing agent (e.g. NaBH4) is also possible.

[4] = system: RHCC; assay: localisation by UV-Vis spectroscopy (solvatochromic effect); format: binding, Staphylothermus marinus; settings: tris-buffer solution with RHCC compared with water, methanol, water/methanol 50/50; FIG. 1
Procedure: The location of a drug inside the cavities can be detected by techniques sensitive to the local microscopic environment of the molecule, e.g. the drug. For example the absorption of visible light (UV-Vis spectroscopy—solvatochromic effect) can be used to probe the local environment of e.g. […] (FIG. 1). The position of the absorption peak of […] is measured in water (FIG. 1—Plot A), in methanol (FIG. 1, Plot C), water/methanol (50/50) (FIG. 1—Plot B) and in a mixture with the peptide (FIG. 1—Plot E).

Compound | biological activity on IL-6-dependent BAF/3 cell line [1] | interaction of metal complex with RHCC after filtering off excess complex [2] | incorporation of the metal ion into RHCC peptide in solution [3] | local environment of the complex when mixed with the peptide (absorption peak position) [4]
RHCC-IL-6 fusion molecule: fusion protein: histidine tag, human interleukin-6 sequence, GS linker, RHCC sequence; forms a tetramer | full biological activity | – | – | –
N.N.[Cl][Pt][Cl] [cisplatin] | – | strong interaction | – | –
[I][Hg-2]([I])([I])[I] [HgI4^2−] | – | strong enough to prevent HgI4^2− from being filtered from the solution | incorporates the metal ion in solution | resides in a hydrophobic environment
[Cl][Pt-2]([Cl])([Cl])[Cl] [[PtCl4]^−] | – | – | incorporates the metal ion in solution | –
